Experimental findings from US20220153766A1, “CONDENSED TRICYCLIC COMPOUND USED AS KINASE INHIBITOR” (Hangzhou Innogate Pharma Co., Ltd., priority 2019, published 2022) are described below.

Series [1] deals with ALK (Homo sapiens, UniProt Q9UM73). Nature of the series: ALK kinase activity inhibition, Caliper mobility shift assay, method 2. Format: biochemical. The conditions noted are these: ALK 1.25 nM, ATP 30 μM. As to the method:
2. ALK Kinase Activity Inhibition Experiment:
Method 2: Caliper mobility shift assay was used to measure ALK protein kinase activity. The method is basically the same as method 1, with individual parameters adjusted. The initial concentration of the compound is 1 mM, and sequentially diluted 4-fold to make 6 points (7 points for some individual compounds). Use a dispenser Echo 550 to transfer 250 nL of 100-fold final concentration of the compound to the target plate 3573, add 10 μL ALK with final concentration of 1.25 nM, incubate at room temperature for 10 minutes (the negative control well contains 10 μL kinase buffer and 250 nL 100% DMSO; the positive control well contains 10 μL kinase solution and 250 nL 100% DMSO). On the kinase ALK, add 15 μL of ATP with a final concentration of 30 μM and 3 μM of the substrate peptide No. 22 mixed solution to react for 25 minutes; add 30 μL of stop detection solution containing EDTA to stop the kinase reaction. Use Caliper EZ Reader to read the conversion rate. Inhibition rate %=(Average positive control conversion rate %−Sample conversion rate %/(Average positive control conversion rate %−Average negative control conversion rate %). Among them: negative control wells represent the conversion rate readings without enzyme activity; positive control wells represent the conversion rate readings of wells without compound inhibition. Take the log value of the concentration as the X-axis, and the percentage inhibition rate on the Y-axis. Log (inhibitor) vs. response—Variable slope of analysis software GraphPad Prism 5 was used to fit the curve to obtain the IC50 value of each compound on the enzyme activity. Calculation formula: Y=Bottom+(Top−Bottom)/(1+10^((Log IC50−X)*HillSlope)).

Series [2] has as its target EGFR (T790M/L858R/C797S) (Homo sapiens, UniProt P00533, C797S/L858R/T790M). In words: EGFR (T790M/L858R/C797S) kinase activity inhibition, Caliper mobility shift assay. The settings on record: kinase 2.5 nM, ATP 40 μM. The series is classed as biochemical. As for the experimental part:
The basic method is the same as ALK activity test method 2. The test concentration of the compound starts at 2 μM, and is diluted 5 folds into 6 (7 for individual compounds) concentration points. […] Add 30 μL of stop solution containing EDTA to stop the kinase reaction. Use Caliper EZ Reader to read the conversion rate. Inhibition rate %=(Average positive control conversion rate %−Sample conversion rate %/(Average positive control conversion rate %−Average negative control conversion rate %). Among them: negative control wells represent the conversion rate readings without enzyme activity; positive control wells represent the conversion rate readings of wells without compound inhibition. Take the log value of the concentration as the X-axis, and the percentage inhibition rate on the Y-axis. Log (inhibitor) vs. response—Variable slope of analysis software GraphPad Prism 5 was used to fit the curve to obtain the IC50 value of each compound on the enzyme activity. Calculation formula: Y=Bottom+(Top−Bottom)/(1+10^((Log IC50−X)*HillSlope)).

The target in series [3] is MAP4K1 (HPK1) (Homo sapiens, UniProt Q92918). Nature of the series: MAP4K1 (HPK1) kinase activity inhibition, Caliper mobility shift assay. The settings on record: kinase 1.25 nM, ATP 10.1 μM. The series is classed as biochemical. Summed up:
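HPK1 kinase at 1.25 nM final preincubated 10 min at room temperature with compound (5 points, 5-fold dilutions from 500 nM), then reacted 120 min with 10.1 μM ATP and 3 μM substrate peptide No. 25. EDTA stop; mobility-shift conversion read, IC50 from variable-slope four-parameter fit of % inhibition.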

Series [4] addresses Ba/F3_EGFR del19/T790M/C797S cells (Homo sapiens, UniProt P00533, T790M/C797S, cells depend on it, form not given). In words: Ba/F3_EGFR (del19-T790M-C797S) cell proliferation inhibition, CTG, method 2. The settings on record: 2000 cells/well, 72 h, read-out: Ba/F3_EGFR (del19-T790M-C797S) cell proliferation inhibition (IC50 value) Method 2. Format: cell-based. As to the method: Take a small amount of cells and count them with ViCell. 2) Adjust the cell density, inoculate the cells in a 384-well plate at 2000/well, and incubate in a 37° C., 5% CO2 incubator for 4 hours. 3) Set up the program of Tecan HP D300, add the compound to the well plate. The maximum initial concentration of the compound is 1-4 μM, 3 folds dilution, 9 concentrations, and the DMSO content in each well is unified to 0.2%.
CTG method detection: 1) Take out the CTG reagent and cell plate and equilibrate at room temperature for 30 min, add 25 μL CTG to each well, shake at medium speed for 2 min, centrifuge at 1000 rpm for 1 minutes, and stand still at room temperature for 10 minutes. 2) Envision instrument reads the chemiluminescence signal value.
Data analysis: IC50 results are analyzed by IDBS's XL-fit 5.0 software.

Series [5] can be described thus: Pharmacokinetic study in rats after intragastrical administration. Format: in vivo. The conditions noted are these: male, rat, plasma, po, SD rats, 3 mg/kg. As for the experimental part:
Example 55: Pharmacokinetic Study in Rats
Instruments: XEVO TQ-S LC/MS instrument produced by Waters. All measurement data is collected and processed by Masslynx V4.1 software, and the data is calculated and processed by Microsoft Excel. Using WinNonLin 8.0 software, the statistical moment method was used to calculate the pharmacokinetic parameters. Mainly include kinetic parameters Tmax, T1/2, Cmax, AUClast etc. […] Injection volume: 5 μL.
Animals: 3 male SD rats with a weight range of 200-220 g. After purchase, they will be kept in the laboratory of the Experimental Animal Center for 2 days and then used. They will be fasted for 12 hours predose and 4 hours after dosing. Drinking water is free during the test. After the rats were gavage, blood samples were taken according to the established time point.
Solvent: 0.5% Methylcellulose (aqueous solution containing 0.4% Tween 80 and 1% ethanol). Preparation of the solution for intragastrical administration: accurately weigh the compound, add it to the solvent, and ultrasonically at room temperature for 5 minutes to completely dissolve the drug, and prepare a 0.3 mg/ml medicinal solution.
Pharmaceutical samples: representative compounds of the structure shown in the patented formula (I) of the present invention, generally, multiple samples with similar structures (with a molecular weight difference of more than 2 units) are taken, accurately weighed, and administered together (cassette PK). In this way, multiple compounds can be screened at the same time and their oral absorption rates can be compared. A single administration was also used to study the pharmacokinetics of the drug sample in rats.
After intragastrical administration, blood was taken from the orbit at 0.25, 0.5, 1, 2, 4, 9, 12 and 24 hours, and placed in a plastic centrifuge tube pretreated with sodium heparin. After centrifugation, the supernatant plasma was used for LC-MS/MS analysis.
Accurately weigh the compounds to prepare different concentrations, perform quantitative analysis on mass spectrometry to establish a standard curve, and then test the concentration of the above-mentioned compound in the plasma to obtain the compound concentration at different time points. All measurement data are collected and processed by relevant software, and the statistical moment method is used to calculate the pharmacokinetic parameters (mainly including kinetic parameters Tmax, T1/2, Cmax, AUClast etc). The results are as follows:
Table 7: Pharmacokinetic Parameters of the Compounds after Intragastrical Administration in SD Rats

EGFR (T790M/L858R/C797S), sequence (P00533 25-1210 T790M/C797S/L858R): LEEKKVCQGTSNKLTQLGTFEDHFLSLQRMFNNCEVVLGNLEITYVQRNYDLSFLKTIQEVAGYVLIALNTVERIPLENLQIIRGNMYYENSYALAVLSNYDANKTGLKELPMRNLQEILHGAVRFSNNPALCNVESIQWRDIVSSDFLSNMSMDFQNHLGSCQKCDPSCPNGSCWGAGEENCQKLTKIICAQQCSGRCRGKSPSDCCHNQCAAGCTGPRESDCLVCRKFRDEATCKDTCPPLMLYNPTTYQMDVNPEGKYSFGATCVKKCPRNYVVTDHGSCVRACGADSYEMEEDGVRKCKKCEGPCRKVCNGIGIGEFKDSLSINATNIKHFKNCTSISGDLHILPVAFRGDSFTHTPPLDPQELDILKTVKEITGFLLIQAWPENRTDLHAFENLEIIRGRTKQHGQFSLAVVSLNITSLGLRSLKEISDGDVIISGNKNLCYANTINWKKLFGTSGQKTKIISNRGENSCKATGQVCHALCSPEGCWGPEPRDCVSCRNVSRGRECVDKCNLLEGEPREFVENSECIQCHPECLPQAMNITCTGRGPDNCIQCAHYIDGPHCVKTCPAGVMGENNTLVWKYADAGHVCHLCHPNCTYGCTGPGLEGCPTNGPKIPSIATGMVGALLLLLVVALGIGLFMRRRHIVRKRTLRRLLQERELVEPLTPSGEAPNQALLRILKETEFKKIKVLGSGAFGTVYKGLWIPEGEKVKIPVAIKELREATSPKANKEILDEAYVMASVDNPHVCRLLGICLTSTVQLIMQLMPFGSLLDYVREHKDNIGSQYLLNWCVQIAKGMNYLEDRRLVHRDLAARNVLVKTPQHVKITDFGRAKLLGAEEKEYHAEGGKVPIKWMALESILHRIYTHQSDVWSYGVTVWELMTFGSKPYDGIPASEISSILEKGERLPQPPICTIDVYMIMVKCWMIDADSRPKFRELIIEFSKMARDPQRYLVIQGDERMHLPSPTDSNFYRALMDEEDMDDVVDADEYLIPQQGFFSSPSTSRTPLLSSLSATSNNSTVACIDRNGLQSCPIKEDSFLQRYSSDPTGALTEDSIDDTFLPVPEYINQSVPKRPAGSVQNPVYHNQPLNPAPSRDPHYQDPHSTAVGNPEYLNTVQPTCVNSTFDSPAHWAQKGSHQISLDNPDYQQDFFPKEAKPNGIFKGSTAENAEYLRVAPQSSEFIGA
MAP4K1 (HPK1), sequence (Q92918 whole entry): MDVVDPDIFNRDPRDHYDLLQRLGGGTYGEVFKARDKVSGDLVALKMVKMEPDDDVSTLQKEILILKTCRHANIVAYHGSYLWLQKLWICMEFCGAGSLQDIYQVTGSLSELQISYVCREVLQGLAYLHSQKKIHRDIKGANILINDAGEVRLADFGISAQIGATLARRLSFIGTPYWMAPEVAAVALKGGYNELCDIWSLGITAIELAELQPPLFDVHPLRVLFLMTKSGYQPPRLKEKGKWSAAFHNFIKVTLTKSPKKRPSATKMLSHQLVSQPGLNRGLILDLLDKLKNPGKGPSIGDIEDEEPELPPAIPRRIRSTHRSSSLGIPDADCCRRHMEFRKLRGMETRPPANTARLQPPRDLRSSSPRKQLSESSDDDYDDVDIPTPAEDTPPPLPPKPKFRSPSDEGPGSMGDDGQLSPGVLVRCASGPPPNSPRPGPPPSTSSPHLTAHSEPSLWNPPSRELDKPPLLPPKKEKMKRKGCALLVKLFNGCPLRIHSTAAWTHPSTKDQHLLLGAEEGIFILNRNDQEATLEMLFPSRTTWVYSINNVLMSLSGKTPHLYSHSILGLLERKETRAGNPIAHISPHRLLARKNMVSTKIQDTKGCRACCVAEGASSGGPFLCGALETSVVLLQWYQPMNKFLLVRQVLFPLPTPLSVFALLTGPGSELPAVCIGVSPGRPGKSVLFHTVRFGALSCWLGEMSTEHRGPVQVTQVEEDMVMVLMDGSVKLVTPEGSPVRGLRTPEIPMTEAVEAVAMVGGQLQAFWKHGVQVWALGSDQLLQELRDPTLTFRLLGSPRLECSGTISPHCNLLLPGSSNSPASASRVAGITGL
Ba/F3_EGFR del19/T790M/C797S cells, sequence (P00533 with tags, fused parts or gaps DEL746-750/T790M/C797S, form open): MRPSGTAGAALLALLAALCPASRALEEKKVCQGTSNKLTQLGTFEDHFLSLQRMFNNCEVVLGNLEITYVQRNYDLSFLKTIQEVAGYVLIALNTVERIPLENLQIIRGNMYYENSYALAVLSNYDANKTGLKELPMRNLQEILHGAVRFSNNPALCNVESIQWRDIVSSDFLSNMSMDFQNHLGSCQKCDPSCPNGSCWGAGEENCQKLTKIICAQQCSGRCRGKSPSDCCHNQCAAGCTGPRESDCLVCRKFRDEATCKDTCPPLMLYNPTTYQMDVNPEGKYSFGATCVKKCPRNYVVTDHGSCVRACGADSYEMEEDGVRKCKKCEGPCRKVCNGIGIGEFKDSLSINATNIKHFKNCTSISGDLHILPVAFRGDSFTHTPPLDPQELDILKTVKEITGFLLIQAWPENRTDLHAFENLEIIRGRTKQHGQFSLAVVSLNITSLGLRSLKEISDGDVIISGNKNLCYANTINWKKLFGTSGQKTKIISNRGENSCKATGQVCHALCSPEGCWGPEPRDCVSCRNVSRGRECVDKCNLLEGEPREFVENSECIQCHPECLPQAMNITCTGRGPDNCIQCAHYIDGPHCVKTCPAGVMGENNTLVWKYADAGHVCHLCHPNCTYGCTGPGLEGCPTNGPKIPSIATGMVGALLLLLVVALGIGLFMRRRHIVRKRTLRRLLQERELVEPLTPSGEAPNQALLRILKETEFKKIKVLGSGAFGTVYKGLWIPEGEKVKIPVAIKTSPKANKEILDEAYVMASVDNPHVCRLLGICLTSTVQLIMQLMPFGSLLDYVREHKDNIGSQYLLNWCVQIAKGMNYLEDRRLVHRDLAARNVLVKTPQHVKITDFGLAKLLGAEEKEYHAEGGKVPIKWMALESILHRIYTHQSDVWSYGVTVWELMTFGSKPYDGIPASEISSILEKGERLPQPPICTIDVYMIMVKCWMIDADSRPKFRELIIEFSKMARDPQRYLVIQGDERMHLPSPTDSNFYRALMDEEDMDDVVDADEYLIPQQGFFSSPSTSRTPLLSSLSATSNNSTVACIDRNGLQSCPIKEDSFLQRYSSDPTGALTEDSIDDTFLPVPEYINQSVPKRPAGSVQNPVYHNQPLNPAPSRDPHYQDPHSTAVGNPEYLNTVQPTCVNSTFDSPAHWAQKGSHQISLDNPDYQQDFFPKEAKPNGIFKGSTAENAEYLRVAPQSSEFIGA
ALK, sequence (Q9UM73 19-1620): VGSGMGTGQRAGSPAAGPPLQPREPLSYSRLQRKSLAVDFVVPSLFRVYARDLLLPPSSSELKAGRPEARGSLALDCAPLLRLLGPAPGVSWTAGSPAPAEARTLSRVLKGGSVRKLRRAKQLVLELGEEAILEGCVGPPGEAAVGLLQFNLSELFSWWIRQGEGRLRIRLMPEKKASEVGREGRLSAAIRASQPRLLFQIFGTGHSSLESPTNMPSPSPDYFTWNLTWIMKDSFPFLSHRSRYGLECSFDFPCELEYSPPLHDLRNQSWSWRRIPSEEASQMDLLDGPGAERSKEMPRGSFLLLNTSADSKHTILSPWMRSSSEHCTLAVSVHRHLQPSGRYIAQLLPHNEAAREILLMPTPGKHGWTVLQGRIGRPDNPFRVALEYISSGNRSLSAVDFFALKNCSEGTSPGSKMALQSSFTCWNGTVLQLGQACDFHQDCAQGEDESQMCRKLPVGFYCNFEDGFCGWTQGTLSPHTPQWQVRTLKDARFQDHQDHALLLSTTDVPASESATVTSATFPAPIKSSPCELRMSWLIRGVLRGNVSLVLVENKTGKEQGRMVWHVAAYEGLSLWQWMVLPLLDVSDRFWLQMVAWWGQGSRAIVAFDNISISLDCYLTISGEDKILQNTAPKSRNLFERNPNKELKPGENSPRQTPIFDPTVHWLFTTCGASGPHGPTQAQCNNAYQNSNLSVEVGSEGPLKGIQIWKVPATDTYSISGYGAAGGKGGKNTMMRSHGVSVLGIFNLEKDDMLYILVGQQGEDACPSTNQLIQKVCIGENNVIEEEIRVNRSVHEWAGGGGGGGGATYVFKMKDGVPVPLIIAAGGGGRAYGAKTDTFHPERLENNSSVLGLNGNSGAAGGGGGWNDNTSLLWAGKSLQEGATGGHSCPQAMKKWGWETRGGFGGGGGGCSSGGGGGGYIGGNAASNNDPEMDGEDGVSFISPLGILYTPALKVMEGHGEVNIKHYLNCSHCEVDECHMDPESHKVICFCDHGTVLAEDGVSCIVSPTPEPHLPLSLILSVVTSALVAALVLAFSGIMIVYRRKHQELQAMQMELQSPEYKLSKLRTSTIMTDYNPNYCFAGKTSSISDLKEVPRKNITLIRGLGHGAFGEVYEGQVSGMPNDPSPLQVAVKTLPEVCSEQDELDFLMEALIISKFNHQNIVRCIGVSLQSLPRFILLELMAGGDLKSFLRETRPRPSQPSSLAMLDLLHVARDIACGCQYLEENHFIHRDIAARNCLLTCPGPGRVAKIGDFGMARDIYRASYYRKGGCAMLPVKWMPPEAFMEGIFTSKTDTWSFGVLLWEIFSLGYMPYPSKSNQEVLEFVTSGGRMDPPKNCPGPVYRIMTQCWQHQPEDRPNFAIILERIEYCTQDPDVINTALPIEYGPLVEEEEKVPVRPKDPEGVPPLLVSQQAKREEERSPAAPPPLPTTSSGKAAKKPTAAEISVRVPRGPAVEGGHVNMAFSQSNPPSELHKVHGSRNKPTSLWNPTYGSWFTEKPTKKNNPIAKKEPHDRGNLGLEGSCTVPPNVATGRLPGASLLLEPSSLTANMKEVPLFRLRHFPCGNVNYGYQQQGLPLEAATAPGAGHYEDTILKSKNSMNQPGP

On to `Cc1cc(Nc2ncc(Cl)c(Nc3ccccc3P(C)(C)=O)n2)cc2c1N1CCN(C3CCN(C)CC3)C[C@H]1CO2` [Compound 27S], for which the IC50 in series [1] was 1 to 50 nM. Moreover, the IC50 in series [2] was less than 3 nM. Further, in series [3], the IC50 is no more than 1 nM. Moreover, in series [4], the GI50 is less than 20 nM. Besides, in series [5], the peak level (Cmax) was 140 ng/mL, the Tmax is 10 h and the half-life is 5.2 h. Moreover, in series [5] (read-out: AUC0-24 h), the AUC(0-t) turned out to be 2100 ng·h/mL.

As a reminder, the IC50 is the midpoint of a concentration-inhibition curve. In general, Cmax refers to the maximum level reached in the sampled fluid or tissue. A word on the Tmax: it is the time at which the peak concentration occurs. As a reminder, the half-life is how long it takes for the measured level to halve. A high value points to slow decline.
